Experimental findings from US20130303535A1, “NOVEL BICYCLIC HETEROCYCLIC COMPOUND” (priority 2008, published 2013) are described below.

Structures can show the parent of a compound that is named as a salt.

The first test deals with TTX resistant Na channel of human SNS-expressing cell (SNS) (Homo sapiens, UniProt Q9Y5Y9). The test is described as follows: cell-based. The conditions noted are these: CHO-K1, compound concentration 12.5 μM; read-out: SNS inhibitory rate (%).
TTX resistant Na channel of human SNS-expressing cell (SNS), sequence (Q9Y5Y9 whole entry, looked up): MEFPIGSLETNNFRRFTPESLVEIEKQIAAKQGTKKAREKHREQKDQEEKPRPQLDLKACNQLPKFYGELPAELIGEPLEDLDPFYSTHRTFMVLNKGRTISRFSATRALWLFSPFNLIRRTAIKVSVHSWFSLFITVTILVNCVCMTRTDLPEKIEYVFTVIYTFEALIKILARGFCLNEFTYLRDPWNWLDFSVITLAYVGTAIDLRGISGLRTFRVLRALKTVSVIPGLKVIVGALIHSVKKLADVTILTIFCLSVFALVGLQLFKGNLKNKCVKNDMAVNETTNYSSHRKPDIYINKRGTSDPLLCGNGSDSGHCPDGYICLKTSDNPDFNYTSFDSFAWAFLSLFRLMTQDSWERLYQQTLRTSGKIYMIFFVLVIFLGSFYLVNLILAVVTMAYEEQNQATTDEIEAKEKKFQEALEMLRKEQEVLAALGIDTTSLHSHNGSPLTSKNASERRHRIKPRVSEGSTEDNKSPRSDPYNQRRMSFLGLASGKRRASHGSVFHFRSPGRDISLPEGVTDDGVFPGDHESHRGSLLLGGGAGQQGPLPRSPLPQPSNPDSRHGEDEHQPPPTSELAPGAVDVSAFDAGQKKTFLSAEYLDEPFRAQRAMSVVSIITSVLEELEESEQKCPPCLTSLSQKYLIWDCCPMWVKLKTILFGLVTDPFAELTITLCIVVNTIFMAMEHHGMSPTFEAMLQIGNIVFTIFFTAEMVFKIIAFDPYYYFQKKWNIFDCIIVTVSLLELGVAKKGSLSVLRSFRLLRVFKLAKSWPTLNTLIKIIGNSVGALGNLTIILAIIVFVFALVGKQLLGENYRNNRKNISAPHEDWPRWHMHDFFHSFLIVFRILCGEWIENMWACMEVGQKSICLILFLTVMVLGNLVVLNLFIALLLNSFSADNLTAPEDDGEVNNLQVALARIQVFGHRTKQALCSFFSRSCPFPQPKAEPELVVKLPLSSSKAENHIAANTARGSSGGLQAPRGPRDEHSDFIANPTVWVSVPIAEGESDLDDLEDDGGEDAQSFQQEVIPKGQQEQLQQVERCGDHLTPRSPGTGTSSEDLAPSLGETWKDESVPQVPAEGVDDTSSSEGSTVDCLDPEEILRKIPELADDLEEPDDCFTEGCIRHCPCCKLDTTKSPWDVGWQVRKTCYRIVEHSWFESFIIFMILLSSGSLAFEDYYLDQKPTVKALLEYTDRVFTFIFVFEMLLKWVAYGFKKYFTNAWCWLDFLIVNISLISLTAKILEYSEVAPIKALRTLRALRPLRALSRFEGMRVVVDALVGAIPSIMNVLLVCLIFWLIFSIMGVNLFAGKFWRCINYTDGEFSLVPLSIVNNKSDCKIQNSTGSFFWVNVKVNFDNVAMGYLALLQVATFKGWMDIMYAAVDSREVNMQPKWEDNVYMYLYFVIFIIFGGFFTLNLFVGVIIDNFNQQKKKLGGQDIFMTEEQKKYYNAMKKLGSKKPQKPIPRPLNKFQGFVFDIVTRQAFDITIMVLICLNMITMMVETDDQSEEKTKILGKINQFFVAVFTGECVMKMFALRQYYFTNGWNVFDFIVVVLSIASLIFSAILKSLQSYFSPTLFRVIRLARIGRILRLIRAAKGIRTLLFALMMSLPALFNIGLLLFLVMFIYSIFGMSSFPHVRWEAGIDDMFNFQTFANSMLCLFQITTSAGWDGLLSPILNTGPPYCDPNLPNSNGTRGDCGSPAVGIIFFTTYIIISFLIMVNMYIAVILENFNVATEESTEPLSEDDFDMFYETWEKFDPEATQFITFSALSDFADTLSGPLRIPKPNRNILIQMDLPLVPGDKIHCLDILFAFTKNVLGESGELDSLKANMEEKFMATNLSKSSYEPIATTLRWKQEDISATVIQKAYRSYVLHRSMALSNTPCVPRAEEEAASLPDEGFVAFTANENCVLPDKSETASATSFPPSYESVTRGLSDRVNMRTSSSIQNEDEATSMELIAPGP
In the case of `CCOCCn1c(CN[C@@H](C)C(N)=O)nc2ccc(Oc3ccc(C#N)cc3)cc21` [Example 45], the inhibition at 12.5 µM worked out at 40.6%.

On to `CCn1c(CNC(C)(C)C(N)=O)nc2ccc(-c3ccc(F)cc3)cc21` [Example 154], for which the inhibition at 12.5 µM turned out to be 11.2%.

Regarding `CCOCCn1c(CN[C@@H](C)C(N)=O)nc2ccc(-c3ccc(C)cc3F)cc21` [Example 165], the inhibition at 12.5 µM turned out to be 100%.

As to `C[C@H](NCc1nc2ccc(Oc3ccc(OC(F)(F)F)cc3)cc2n1C1CC1)C(N)=O` [Example 100], the inhibition at 12.5 µM was determined as 72.1%.

As to `CCOCCn1c(CNC(C)(C)C(N)=O)nc2ccc(-c3ccc(F)cc3)cc21` [Example 149], the inhibition at 12.5 µM worked out at 30.6%.

`CCOCCn1c(CN[C@@H](C)C(N)=O)nc2ccc(Oc3ccc(C(C)C)cc3)cc21` [Example 94]: the inhibition at 12.5 µM stood at 63.9%.

As to `NC(=O)CNCc1nc2ccc(Oc3ccccc3)cc2n1C1CCCC1` [Example 25], the inhibition at 12.5 µM was 0%.

Take `CC(C)(NCc1nc2ccc(Oc3ccccc3)cc2n1C1CCC1)C(N)=O` [Example 33]: the inhibition at 12.5 µM is 32.9%.

`CCOCCn1c(CNCC(N)=O)nc2ccc(Oc3ccc(F)cc3)cc21` [Example 3, N^2-{[1-(2-ethoxyethyl)-6-(4-fluorophenoxy)-1H-benzimidazol-2-yl]methyl}glycinamide]: the inhibition at 12.5 µM was found to be 12.9%.

On to `CCOCCn1c(CN[C@H](C(N)=O)C(C)C)nc2ccc(Oc3ccc(F)cc3)cc21` [Example 4, N^2-{[1-(2-ethoxyethyl)-6-(4-fluorophenoxy)-1H-benzimidazol-2-yl]methyl}-L-valinamide], for which the inhibition at 12.5 µM was 66.8%.

In the case of `C[C@H](NCc1nc2ccc(Oc3ccc(F)cc3)cc2n1C1CCC1)C(N)=O` [Example 17], the inhibition at 12.5 µM is 89.3%.

In the case of `CCOCCn1c(CN[C@@H](C)C(N)=O)nc2ccc(-c3cccc(F)c3F)cc21` [Example 171], the inhibition at 12.5 µM worked out at 38.3%.

Turning to `NC(=O)[C@@H]1CCCN1Cc1nc2ccc(Oc3ccccc3)cc2n1C[C@@H]1CCCO1` [Example 21], the inhibition at 12.5 µM stood at 100%.

Turning to `CCOCCn1c(CN[C@@H](C)C(N)=O)nc2ccc(OCc3ccccc3)cc21` [Example 76, N^2-{[6-(benzyloxy)-1-(2-ethoxyethyl)-1H-benzimidazol-2-yl]methyl}-L-alaninamide], the inhibition at 12.5 µM came to 18.8%.

As to `CCOCCn1c(CN[C@@H](C)C(N)=O)nc2ccc(Oc3ccccc3)cc21` [Example 1, N^2-{[1-(2-ethoxyethyl)-6-phenoxy-1H-benzimidazol-2-yl]methyl}-L-alaninamide], the inhibition at 12.5 µM came out at 45.8%.

As to `CCOCCn1c(CN[C@@H](C)C(N)=O)nc2ccc(Oc3ccc(F)cc3F)cc21` [Example 49], the inhibition at 12.5 µM came out at 94.8%.

Consider `CCOCCn1c(CN[C@@H](C)C(N)=O)nc2ccc(Oc3ccccc3Cl)cc21` [Example 31], for which the inhibition at 12.5 µM was 92.1%.

On to `CCOCCn1c(CN[C@@H](CC)C(N)=O)nc2ccc(Oc3ccc(F)cc3)cc21` [Example 41], for which the inhibition at 12.5 µM is 99.7%.

With `C[C@H](NCc1nc2ccc(Oc3ccc(F)cc3)cc2n1CC(C)(C)O)C(N)=O` [Example 50], the inhibition at 12.5 µM worked out at 86.8%.

As for `CCOCCn1c(CNC(C)(C)C(N)=O)nc2ccc(-c3ccc(F)c(OC)c3)cc21` [Example 175], the inhibition at 12.5 µM amounted to 5.9%.

Turning to `CCOCCn1c(CN[C@@H](C)C(N)=O)nc2ccc(-c3ccc(F)c(F)c3)cc21` [Example 148], the inhibition at 12.5 µM came out at 17%.

As to `CCOCCn1c(CN[C@@H](C)C(N)=O)nc2cc(Cl)c(-c3ccccc3)cc21` [Example 177], the inhibition at 12.5 µM worked out at 22.5%.

For the molecule `CCOCCn1c(CNC(C)(C)C(N)=O)nc2ccc(-c3ccc(F)cc3C)cc21` [Example 158], the inhibition at 12.5 µM amounted to 86.1%.

On to `C[C@H](NCc1nc2ccc(Oc3ccccc3)cc2n1C[C@H]1CCCO1)C(N)=O` [Example 20], for which the inhibition at 12.5 µM came out at 7.2%.

In the case of `CCn1c(CN[C@@H](C)C(N)=O)nc2ccc(Oc3ccc(OC(F)(F)F)cc3)cc21` [Example 104], the inhibition at 12.5 µM came out at 83.6%.

In the case of `CCOCCn1c(CN[C@@H](CC)C(N)=O)nc2ccc(-c3ccc(C)c(C)c3)cc21` [Example 163], the inhibition at 12.5 µM came to 36.5%.

Take `CCOCCn1c(CN[C@@H](C)C(N)=O)nc2ccc(Oc3ccc(C(C)(C)C)cc3)cc21` [Example 74, N^2-{[6-(4-tert-butylphenoxy)-1-(2-ethoxyethyl)-1H-benzimidazol-2-yl]methyl}-L-alaninamide]: the inhibition at 12.5 µM came out at 58.2%.

As to `CCOCCn1c(CN[C@@H](C)C(N)=O)nc2cc(C(F)(F)F)c(-c3ccc(F)cc3)cc21` [Example 115, N^2-{[1-(2-ethoxyethyl)-6-(4-fluorophenyl)-5-(trifluoromethyl)-1H-benzimidazol-2-yl]methyl}-L-alaninamide], the inhibition at 12.5 µM was determined as 3.5%.

As to `CCOCCn1c(CN[C@@H](C)C(N)=O)nc2cc(-c3ccc(Cl)cc3)ccc21` [Example 191, N^2-{[5-(4-chlorophenyl)-1-(2-ethoxyethyl)-1H-benzimidazol-2-yl]methyl}-L-alaninamide hydrochloride], the inhibition at 12.5 µM worked out at 23.3%.

Take `CCOCCn1c(CNCC(N)=O)nc2ccc(Oc3ccc(Cl)cc3)cc21` [Example 28]: the inhibition at 12.5 µM came to 27.4%.

In the case of `CC(C)(NCc1nc2ccc(Oc3ccc(F)cc3)cc2n1C1CC1)C(N)=O` [Example 136], the inhibition at 12.5 µM stood at 28.7%.

As to `CCOCCn1c(CN[C@@H](C)C(N)=O)nc2ccc(-c3ccc(C)cc3)nc21` [Example 209, N^2-{[3-(2-ethoxyethyl)-5-(4-methylphenyl)-3H-imidazo[4,5-b]pyridin-2-yl]methyl}-L-alaninamide hydrochloride], the inhibition at 12.5 µM came to 6.5%.

With `COCCCn1c(CNCC(N)=O)nc2ccc(Oc3ccccc3)cc21` [Example 23], the inhibition at 12.5 µM was determined as 0.8%.

In the case of `C[C@H](NCc1nc2ccc(Oc3ccccc3)cc2n1C1CCC1)C(N)=O` [Example 11], the inhibition at 12.5 µM worked out at 63%.

With `CCOCCn1c(CN[C@@H](C)C(N)=O)nc2cc(F)c(-c3ccc(Cl)cc3)cc21` [Example 186], the inhibition at 12.5 µM was 55.6%.

For the molecule `CCOCCn1c(CN[C@@H](C)C(N)=O)nc2cc(F)c(-c3ccc(F)cc3)cc21` [Example 109, N^2-{[1-(2-ethoxyethyl)-5-fluoro-6-(4-fluorophenyl)-1H-benzimidazol-2-yl]methyl}-L-alaninamide], the inhibition at 12.5 µM is 89.3%.

For `CCOCCn1c(CNCC(N)=O)nc2ccc(Oc3ccccc3)nc21` [Example 80, N^2-{[3-(2-ethoxyethyl)-5-phenoxy-3H-imidazo[4,5-b]pyridin-2-yl]methyl}glycinamide], the inhibition at 12.5 µM stood at 2.5%.

Consider `CCOCCn1c(CN[C@@H](C)C(N)=O)nc2ccc(-c3ccc(C)c(C)c3)cc21` [Example 161], for which the inhibition at 12.5 µM was 76.2%.

With `CCOCCn1c(CN[C@@H](C)C(N)=O)nc2cc(Cl)c(-c3ccc(C)cc3)cc21` [Example 178], the inhibition at 12.5 µM turned out to be 16%.

In the case of `Cc1ccc(Oc2ccc3nc(CNC(C)(C)C(N)=O)n(C4CCOCC4)c3c2)cc1` [Example 140], the inhibition at 12.5 µM is 97.5%.

Consider `CCOCCn1c(CN[C@@H](C)C(N)=O)nc2cc(Cl)c(-c3ccc(F)cc3F)cc21` [Example 179], for which the inhibition at 12.5 µM amounted to 67.4%.

Consider `NC(=O)[C@@H]1CCCN1Cc1nc2ccc(Oc3ccccc3)cc2n1CC1CCOCC1` [Example 16], for which the inhibition at 12.5 µM turned out to be 96.2%.

Consider `CCn1c(CN[C@@H](C)C(N)=O)nc2ccc(Oc3ccc(F)cc3F)cc21` [Example 98], for which the inhibition at 12.5 µM was determined as 69.8%.

For the molecule `C[C@H](NCc1nc2ccc(Oc3ccc(OC(F)(F)F)cc3)cc2n1CCO)C(N)=O` [Example 134], the inhibition at 12.5 µM is 95.7%.

With `CCOCCn1c(CN[C@@H](C)C(N)=O)nc2cc(-c3ccc(OC)cc3)ccc21` [Example 192, N^2-{[1-(2-ethoxyethyl)-5-(4-methoxyphenyl)-1H-benzimidazol-2-yl]methyl}-L-alaninamide trifluoroacetate], the inhibition at 12.5 µM stood at 11.9%.

Take `CC(C)n1c(CN[C@@H](C)C(N)=O)nc2ccc(Oc3ccccc3)cc21` [Example 9]: the inhibition at 12.5 µM came out at 28.9%.

Take `CCOCCn1c(CN[C@@H](C)C(N)=O)nc2ccc(Oc3ccc(OC(F)(F)F)cc3)cc21` [Example 43]: the inhibition at 12.5 µM turned out to be 61%.

With `CCOCCn1c(CNC(C)(C)C(N)=O)nc2ccc(-c3ccc(C)c(F)c3)cc21` [Example 170], the inhibition at 12.5 µM worked out at 14.2%.

Regarding `CCOCCn1c(CN[C@@H](C)C(N)=O)nc2cc(C)c(-c3ccc(F)cc3)cc21` [Example 113, N^2-{[1-(2-ethoxyethyl)-6-(4-fluorophenyl)-5-methyl-1H-benzimidazol-2-yl]methyl}-L-alaninamide], the inhibition at 12.5 µM stood at 64.7%.

In the case of `NC(=O)CNCc1nc2ccc(Oc3ccccc3)cc2n1C1CCC1` [Example 12], the inhibition at 12.5 µM amounted to 17%.

Turning to `CCOCCn1c(CN[C@@H](C)C(N)=O)nc2ccc(-c3ccc(F)cc3)cc21` [Example 68], the inhibition at 12.5 µM worked out at 16%.

`C[C@H](NCc1nc2ccc(Oc3ccc(OC(F)(F)F)cc3)cc2n1CC(C)(C)O)C(N)=O` [Example 103]: the inhibition at 12.5 µM came out at 87.9%.

Regarding `CCOCCn1c(CN[C@@H](CC)C(N)=O)nc2ccc(Oc3ccccc3)cc21` [Example 37], the inhibition at 12.5 µM is 42.3%.

In the case of `CCOCCn1c(CN[C@@H](C)C(N)=O)nc2cc(Cl)c(-c3ccc(C(F)(F)F)cc3)cc21` [Example 182], the inhibition at 12.5 µM stood at 0%.

For `CCOCCn1c(CN[C@@H](C)C(=O)N2CCNC(C#N)C2)nc2ccc(Oc3ccc(F)cc3)cc21` (stereo partly shown) [Example 107], the inhibition at 12.5 µM is 83.7%.

`CC(C)(NCc1nc2ccc(Oc3ccccc3)cc2n1C[C@@H]1CCCO1)C(N)=O` [Example 35]: the inhibition at 12.5 µM was 10.8%.

Take `CCOCCn1c(CN[C@@H](C)C(N)=O)nc2ccc(-c3ccc(C)cc3)cc21` [Example 144]: the inhibition at 12.5 µM turned out to be 6.1%.

Staying with this test, now noted: compound concentration 12.5 μM.
Turning to `CCOCCn1c(CN[C@@H](C)C(N)=O)nc2cc(Cl)c(-c3ccc(F)cc3)cc21` [Example 176], the “SNS inhibitory rate (%)” value came to 68.8%.
